Measured values as given in US9695155B2, “Herbicidal substituted pyrimidinyloxy benzene compounds” (E. I. DU PONT DE NEMOURS AND COMPANY, priority 2013, dated 2017).

What was measured:
wheat = assay: Test A preemergence; assay type: in vivo, Triticum aestivum; conditions: for Wheat plant response rating (0 to 100 scale): 125 g ai/ha; for Wheat plant response rating: 500 g ai/ha, 0 to 100 scale where 0 is no effect and 100 is complete control
In short: (§1)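 Injury scores run from 0, no effect, to 100, complete control, judged by eye against untreated plants roughly 10 days after treatment. Chemicals carried a surfactant in a non-phytotoxic solvent and went onto loam–sand soil preemergence or onto one- to two-leaf seedlings postemergence.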

giant foxtail [1] = assay: Test A postemergence; assay type: in vivo, Setaria faberii; conditions: 0 to 100 scale where 0 is no effect and 100 is complete control; for Foxtail, Giant plant response rating: 125 g ai/ha; for Plant response rating, Foxtail, Giant: 500 g ai/ha
In short: as §1

pigweed [2] = assay: Test A postemergence; assay type: in vivo, Amaranthus retroflexus; conditions: 0 to 100 scale where 0 is no effect and 100 is complete control; for Pigweed plant response rating: 125 g ai/ha; for Plant response rating, Pigweed: 500 g ai/ha
In short: as §1

corn [3] = assay: Test A postemergence; assay type: in vivo, Zea mays; conditions: 0 to 100 scale where 0 is no effect and 100 is complete control; for Corn plant response rating: 125 g ai/ha; for Plant response rating, Corn: 500 g ai/ha
In short: as §1

galium = assay: Test C preemergence; assay type: in vivo, Galium aparine; conditions: for Galium plant response rating: preemergence; for Plant response rating, Galium: Preemergence, 62 g ai/ha, scale 0 to 100, 0 no effect, 100 complete control
In short: (§2)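 Greenhouse herbicide screen. Pre: seeded loam/sand, sprayed at planting. Post: 1–4 leaf plants (2–18 cm) in peat-based mix. Formulation: solvent mixture + surfactant, non-phytotoxic. Readout: visual % control vs untreated, 13–15 d; dash = not tested.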

corn [4] = assay: Test C preemergence; assay type: in vivo, Zea mays; conditions: for Corn plant response rating: preemergence; for Plant response rating, Corn: Preemergence, 62 g ai/ha, scale 0 to 100, 0 no effect, 100 complete control
In short: as §2

lambsquarters [5] = assay: Test C preemergence; assay type: in vivo, Chenopodium album; conditions: for Lambsquarters plant response rating: preemergence; for Plant response rating, Lambsquarters: Preemergence, 62 g ai/ha, scale 0 to 100, 0 no effect, 100 complete control
In short: as §2

morningglory [6] = assay: Test C preemergence; assay type: in vivo, Ipomoea coccinea; conditions: for Morningglory plant response rating: preemergence; for Plant response rating, Morningglory: Preemergence, 62 g ai/ha, scale 0 to 100, 0 no effect, 100 complete control
In short: as §2

ragweed [7] = assay: Test C preemergence; assay type: in vivo, Ambrosia elatior; conditions: for Ragweed plant response rating: preemergence; for Plant response rating, Ragweed: Preemergence, 62 g ai/ha, scale 0 to 100, 0 no effect, 100 complete control
In short: as §2

velvetleaf = assay: Test C preemergence; assay type: in vivo, Abutilon theophrasti; conditions: for Velvetleaf plant response rating: preemergence; for Plant response rating, Velvetleaf: Preemergence, 62 g ai/ha, scale 0 to 100, 0 no effect, 100 complete control
In short: as §2

large (Lg) crabgrass = assay: Test C postemergence; assay type: in vivo, Digitaria sanguinalis; conditions: for Crabgrass, Large plant response rating: 31 g ai/ha; for Crabgrass, Large plant response rating / Plant response rating, Crabgrass, Large: scale 0 to 100 (0 no effect, 100 complete control)
In short: as §2

giant foxtail [8] = assay: Test C postemergence; assay type: in vivo, Setaria faberii; conditions: for Foxtail, Giant plant response rating: 31 g ai/ha; for Foxtail, Giant plant response rating / Plant response rating, Foxtail, Giant: scale 0 to 100 (0 no effect, 100 complete control)
In short: as §2

lambsquarters [9] = assay: Test C postemergence; assay type: in vivo, Chenopodium album; conditions: for Lambsquarters plant response rating: 31 g ai/ha; for Lambsquarters plant response rating / Plant response rating, Lambsquarters: scale 0 to 100 (0 no effect, 100 complete control)
In short: as §2

morningglory [10] = assay: Test C postemergence; assay type: in vivo, Ipomoea coccinea; conditions: for Morningglory plant response rating: 31 g ai/ha; for Morningglory plant response rating / Plant response rating, Morningglory: scale 0 to 100 (0 no effect, 100 complete control)
In short: as §2

pigweed [11] = assay: Test C postemergence; assay type: in vivo, Amaranthus retroflexus; conditions: for Pigweed plant response rating: 31 g ai/ha; for Pigweed plant response rating / Plant response rating, Pigweed: scale 0 to 100 (0 no effect, 100 complete control)
In short: as §2

ragweed [12] = assay: Test C postemergence; assay type: in vivo, Ambrosia elatior; conditions: for Ragweed plant response rating: 31 g ai/ha; for Ragweed plant response rating / Plant response rating, Ragweed: scale 0 to 100 (0 no effect, 100 complete control)
In short: as §2

soybean = assay: Test C postemergence; assay type: in vivo, Glycine max; conditions: for Soybean plant response rating: 31 g ai/ha; for Soybean plant response rating / Plant response rating, Soybean: scale 0 to 100 (0 no effect, 100 complete control)
In short: as §2

waterhemp = assay: Test C postemergence; assay type: in vivo, Amaranthus rudis; conditions: for Waterhemp plant response rating: 31 g ai/ha; for Waterhemp plant response rating / Plant response rating, Waterhemp: scale 0 to 100 (0 no effect, 100 complete control)
In short: as §2

[13] = 125 g ai/ha, scale 0 (no effect) to 100 (complete control)
[14] = 250 g ai/ha, scale 0 (no effect) to 100 (complete control)
[15] = postemergence, visual rating, 13 to 15 days
[16] = 125 g ai/ha, postemergence, visual rating
[17] = Postemergence, 62 g ai/ha, 13 to 15 days
[18] = 16 g ai/ha, scale 0 to 100 (0 no effect, 100 complete control)
[19] = 16 g ai/ha, postemergence, 0 is no effect, 100 is complete control

SMILES: N#Cc1cccc(Oc2ncc(Cl)cn2)c1-n1cc(I)cn1 [Compound 204]
- Wheat plant response rating (0 to 100 scale) (wheat): 40
- Wheat plant response rating (wheat): 60
- Foxtail, Giant plant response rating (giant foxtail [1]): 80
- Plant response rating, Foxtail, Giant (giant foxtail [1]): 100
- Pigweed plant response rating (pigweed [2]): 100
- Plant response rating, Pigweed (pigweed [2]): 100
- Corn plant response rating (corn [3]): 50
- Plant response rating, Corn (corn [3]): 60
- Galium plant response rating (galium; [13]): 100
- Galium plant response rating (galium; [14]): 100
- Plant response rating, Galium (galium): 100
- Corn plant response rating (corn [4]; [13]): 5
- Corn plant response rating (corn [4]; [14]): 35
- Plant response rating, Corn (corn [4]): 0
- Lambsquarters plant response rating (lambsquarters [5]; [13]): 95
- Lambsquarters plant response rating (lambsquarters [5]; [14]): 98
- Plant response rating, Lambsquarters (lambsquarters [5]): 98
- Morningglory plant response rating (morningglory [6]; [13]): 98
- Morningglory plant response rating (morningglory [6]; [14]): 98
- Plant response rating, Morningglory (morningglory [6]): 98
- Ragweed plant response rating (ragweed [7]; [13]): 5
- Ragweed plant response rating (ragweed [7]; [14]): 85
- Plant response rating, Ragweed (ragweed [7]): 5
- Velvetleaf plant response rating (velvetleaf; [13]): 98
- Velvetleaf plant response rating (velvetleaf; [14]): 98
- Plant response rating, Velvetleaf (velvetleaf): 85
- Crabgrass, Large plant response rating (large (Lg) crabgrass; [15]): 5
- Plant response rating, Crabgrass, Large (large (Lg) crabgrass; [16]): 15
- Plant response rating (0 to 100), Crabgrass, Large (large (Lg) crabgrass; 250 g ai/ha, postemergence): 65
- Plant response rating, Crabgrass, Large (large (Lg) crabgrass; [17]): 10
- Foxtail, Giant plant response rating (giant foxtail [8]; [15]): 5
- Plant response rating, Foxtail, Giant (giant foxtail [8]; [16]): 10
- Plant response rating (0 to 100), Foxtail, Giant (giant foxtail [8]; 250 g ai/ha, postemergence): 90
- Plant response rating, Foxtail, Giant (giant foxtail [8]; [17]): 5
- Lambsquarters plant response rating (lambsquarters [9]; [15]): 85
- Plant response rating, Lambsquarters (lambsquarters [9]; [16]): 90
- Plant response rating (0 to 100), Lambsquarters (lambsquarters [9]; 250 g ai/ha, postemergence): 95
- Plant response rating, Lambsquarters (lambsquarters [9]; [17]): 80
- Morningglory plant response rating (morningglory [10]; [15]): 60
- Plant response rating, Morningglory (morningglory [10]; [16]): 98
- Plant response rating (0 to 100), Morningglory (morningglory [10]; 250 g ai/ha, postemergence): 95
- Plant response rating, Morningglory (morningglory [10]; [17]): 65
- Pigweed plant response rating (pigweed [11]; [15]): 80
- Plant response rating, Pigweed (pigweed [11]; [16]): 95
- Plant response rating (0 to 100), Pigweed (pigweed [11]; 250 g ai/ha, postemergence): 98
- Plant response rating, Pigweed (pigweed [11]; [17]): 95
- Ragweed plant response rating (ragweed [12]; [15]): 25
- Plant response rating, Ragweed (ragweed [12]; [16]): 35
- Plant response rating (0 to 100), Ragweed (ragweed [12]; 250 g ai/ha, postemergence): 75
- Plant response rating, Ragweed (ragweed [12]; [17]): 40
- Soybean plant response rating (soybean; [15]): 70
- Plant response rating, Soybean (soybean; [16]): 95
- Plant response rating (0 to 100), Soybean (soybean; 250 g ai/ha, postemergence): 95
- Plant response rating, Soybean (soybean; [17]): 95
- Waterhemp plant response rating (waterhemp; [15]): 85
- Plant response rating, Waterhemp (waterhemp; [16]): 90
- Plant response rating (0 to 100), Waterhemp (waterhemp; 250 g ai/ha, postemergence): 95
- Plant response rating, Waterhemp (waterhemp; [17]): 90

SMILES: N#Cc1cnn(-c2c(Oc3ncc(Cl)cn3)cccc2C(F)F)c1 [Compound 236]
- Wheat plant response rating (0 to 100 scale) (wheat): 0
- Wheat plant response rating (wheat): 100
- Foxtail, Giant plant response rating (giant foxtail [1]): 90
- Plant response rating, Foxtail, Giant (giant foxtail [1]): 100
- Pigweed plant response rating (pigweed [2]): 100
- Plant response rating, Pigweed (pigweed [2]): 100
- Corn plant response rating (corn [3]): 70
- Plant response rating, Corn (corn [3]): 100
- Galium plant response rating (galium; [18]): 90
- Galium plant response rating (galium; [13]): 100
- Plant response rating, Galium (galium): 100
- Corn plant response rating (corn [4]; [18]): 0
- Corn plant response rating (corn [4]; [13]): 90
- Plant response rating, Corn (corn [4]): 10
- Lambsquarters plant response rating (lambsquarters [5]; [18]): 98
- Lambsquarters plant response rating (lambsquarters [5]; [13]): 100
- Plant response rating, Lambsquarters (lambsquarters [5]): 100
- Morningglory plant response rating (morningglory [6]; [18]): 0
- Morningglory plant response rating (morningglory [6]; [13]): 98
- Plant response rating, Morningglory (morningglory [6]): 55
- Ragweed plant response rating (ragweed [7]; [18]): 15
- Ragweed plant response rating (ragweed [7]; [13]): 90
- Plant response rating, Ragweed (ragweed [7]): 85
- Velvetleaf plant response rating (velvetleaf; [18]): 65
- Velvetleaf plant response rating (velvetleaf; [13]): 100
- Plant response rating, Velvetleaf (velvetleaf): 100
- Plant response rating (0 to 100), Crabgrass, Large (large (Lg) crabgrass; [19]): 5
- Crabgrass, Large plant response rating (large (Lg) crabgrass; [15]): 5
- Plant response rating, Crabgrass, Large (large (Lg) crabgrass; [16]): 5
- Plant response rating, Crabgrass, Large (large (Lg) crabgrass; [17]): 5
- Plant response rating (0 to 100), Foxtail, Giant (giant foxtail [8]; [19]): 5
- Foxtail, Giant plant response rating (giant foxtail [8]; [15]): 50
- Plant response rating, Foxtail, Giant (giant foxtail [8]; [16]): 15
- Plant response rating, Foxtail, Giant (giant foxtail [8]; [17]): 15
- Plant response rating (0 to 100), Lambsquarters (lambsquarters [9]; [19]): 80
- Lambsquarters plant response rating (lambsquarters [9]; [15]): 85
- Plant response rating, Lambsquarters (lambsquarters [9]; [16]): 90
- Plant response rating, Lambsquarters (lambsquarters [9]; [17]): 75
- Plant response rating (0 to 100), Morningglory (morningglory [10]; [19]): 10
- Morningglory plant response rating (morningglory [10]; [15]): 45
- Plant response rating, Morningglory (morningglory [10]; [16]): 75
- Plant response rating, Morningglory (morningglory [10]; [17]): 70
- Plant response rating (0 to 100), Pigweed (pigweed [11]; [19]): 60
- Pigweed plant response rating (pigweed [11]; [15]): 90
- Plant response rating, Pigweed (pigweed [11]; [16]): 95
- Plant response rating, Pigweed (pigweed [11]; [17]): 90
- Plant response rating (0 to 100), Ragweed (ragweed [12]; [19]): 10
- Ragweed plant response rating (ragweed [12]; [15]): 15
- Plant response rating, Ragweed (ragweed [12]; [16]): 75
- Plant response rating, Ragweed (ragweed [12]; [17]): 40
- Plant response rating (0 to 100), Soybean (soybean; [19]): 60
- Soybean plant response rating (soybean; [15]): 75
- Plant response rating, Soybean (soybean; [16]): 95
- Plant response rating, Soybean (soybean; [17]): 85
- Plant response rating (0 to 100), Waterhemp (waterhemp; [19]): 70
- Waterhemp plant response rating (waterhemp; [15]): 70
- Plant response rating, Waterhemp (waterhemp; [16]): 90
- Plant response rating, Waterhemp (waterhemp; [17]): 90
